In the NIST ThermoML archive (doi:10.1021/acs.jced.8b00713):

Settings: Liquid; for viscosity: Vibrating wire viscometry; for mass density: Vibrating tube method

FC(F)(F)/C=C\C(F)(F)F [(Z)-1,1,1,4,4,4-hexafluorobut-2-ene]
Settings	mass density [kg/m3]	viscosity [mPa·s]
313.16 K, 10000 kPa	–	0.3543
313.16 K, 50000 kPa	1451.06	–
313.16 K, 60000 kPa	1467.37	–
323.14 K, 5000 kPa	1317.21	–
323.14 K, 10000 kPa	1335.83	–
323.14 K, 20000 kPa	–	0.3632
323.15 K, 500 kPa	1297.83	–
323.15 K, 1000 kPa	1300.12	–
323.15 K, 5000 kPa	–	0.2981
323.15 K, 10000 kPa	–	0.322
323.15 K, 15000 kPa	1352.25	0.3425
323.15 K, 20000 kPa	1366.96	–
323.15 K, 25000 kPa	1380.35	0.3839
323.15 K, 30000 kPa	1392.69	0.4043
323.15 K, 40000 kPa	1414.6	–
323.15 K, 50000 kPa	1433.91	–
323.15 K, 80010 kPa	1480.77	–
323.15 K, 100010 kPa	1505.41	–
323.16 K, 500 kPa	–	0.2776
323.16 K, 1000 kPa	–	0.28
323.16 K, 2000 kPa	1304.59	0.2844
323.16 K, 40000 kPa	–	0.445
323.16 K, 60000 kPa	1451.12	–
333.14 K, 500 kPa	–	0.2497
333.15 K, 1000 kPa	1271.96	0.2521
333.15 K, 5000 kPa	1291.31	0.2705
333.15 K, 10000 kPa	–	0.2917
333.15 K, 15000 kPa	–	0.3126
333.15 K, 20000 kPa	1346	0.3321
333.15 K, 25000 kPa	1360.41	0.3512
333.15 K, 30000 kPa	1373.57	0.3741
333.15 K, 40000 kPa	1396.93	0.41
333.15 K, 50000 kPa	1417.34	–
333.15 K, 60000 kPa	1435.25	–
333.15 K, 80000 kPa	1466.47	–
333.15 K, 100000 kPa	1492.09	–
333.16 K, 500 kPa	1269.32	–
333.16 K, 2000 kPa	1277.07	0.2568
333.16 K, 10000 kPa	1312.03	–
333.16 K, 15000 kPa	1330.02	–
343.15 K, 1000 kPa	–	0.2262
343.15 K, 2000 kPa	1248.57	0.2308
343.15 K, 5000 kPa	–	0.2443
343.15 K, 10000 kPa	–	0.2663
343.15 K, 15000 kPa	1307.63	0.2864
343.15 K, 20000 kPa	–	0.3054
343.15 K, 25000 kPa	–	0.3246
343.15 K, 30000 kPa	–	0.3429
343.15 K, 40000 kPa	1379.44	0.3794
343.15 K, 50000 kPa	1400.93	–
343.15 K, 60000 kPa	1419.91	–
343.15 K, 80000 kPa	1452.33	–
343.15 K, 100000 kPa	1478.79	–
343.16 K, 500 kPa	1239.61	0.224
343.16 K, 1000 kPa	1242.66	–
343.16 K, 5000 kPa	1264.73	–
343.16 K, 10000 kPa	1287.86	–
343.16 K, 20000 kPa	1324.98	–
343.16 K, 25000 kPa	1340.52	–
343.16 K, 30000 kPa	1354.59	–
353.14 K, 2000 kPa	–	0.2104
353.15 K, 1000 kPa	1211.33	–
353.15 K, 2000 kPa	1218.18	–
353.15 K, 5000 kPa	–	0.221
353.15 K, 10000 kPa	–	0.2419
353.15 K, 15000 kPa	1284.42	0.2623
353.15 K, 20000 kPa	–	0.2801
353.15 K, 25000 kPa	1320.02	–
353.15 K, 30000 kPa	1335.13	0.3157
353.15 K, 40000 kPa	1361.5	0.3504
353.15 K, 50000 kPa	1384.21	–
353.15 K, 60000 kPa	1404.05	–
353.15 K, 80010 kPa	1438.01	–
353.15 K, 100000 kPa	1465.73	–
353.16 K, 1000 kPa	–	0.2057
353.16 K, 5000 kPa	1236.75	–
353.16 K, 10000 kPa	1262.64	–
353.16 K, 20000 kPa	1303.28	–
353.16 K, 25000 kPa	–	0.2983
363.15 K, 1000 kPa	1177.46	–
363.15 K, 10000 kPa	1236.32	–
363.15 K, 25000 kPa	1298.98	–
363.15 K, 30000 kPa	1315.14	–
363.15 K, 60000 kPa	1387.96	–
363.15 K, 79990 kPa	1423.19	–
363.16 K, 2000 kPa	1185.52	–
363.16 K, 5000 kPa	1207.05	–
363.16 K, 15000 kPa	1260.38	–
363.16 K, 20000 kPa	1280.92	–
363.16 K, 40000 kPa	1343.17	–
363.16 K, 50000 kPa	1367.09	–
363.16 K, 100000 kPa	1451.81	–
373.15 K, 1000 kPa	1140.74	–
373.15 K, 5000 kPa	1175.78	–
373.15 K, 10020 kPa	1209.06	–
373.15 K, 15000 kPa	1235.47	–
373.15 K, 25000 kPa	1277.24	–
373.15 K, 30000 kPa	1294.44	–
373.15 K, 50000 kPa	1349.23	–
373.15 K, 60000 kPa	1370.99	–
373.15 K, 80010 kPa	1407.73	–
373.15 K, 100010 kPa	1437.36	–
373.16 K, 2000 kPa	1150.47	–
373.16 K, 20020 kPa	1257.86	–
373.16 K, 40000 kPa	1324.14	–
